Measurements as given in patent US5041567A, “Antibacterial monic acid derivatives” (Beecham Group plc, priority 1982, dated 1991).
Converted amounts (≈) assume the structure as drawn. Read-outs that look alike come from different tables or passages of the source.

How the values were obtained:
M. suipneumoniae NB12 = test: MIC against mycoplasma in vitro; assay type: cell-based; conditions: Mesomycoplasma hyopneumoniae, 144 h; M. suipneumoniae NB12; Friis broth, 0.9% agarose, 6 days, 37° C.; read-out: MIC
M. suipneumoniae HK(2) = test: MIC against mycoplasma in vitro; assay type: cell-based; conditions: Mesomycoplasma hyopneumoniae, 144 h; M. suipneumoniae HK(2); 6 days, 37° C.; read-out: MIC
M. suipneumoniae Str. 11 = test: MIC against mycoplasma in vitro; assay type: cell-based; conditions: Mesomycoplasma hyopneumoniae, 144 h; M. suipneumoniae Str. 11; 6 days, 37° C.; read-out: MIC
M. suipneumoniae MS 16 = test: MIC against mycoplasma in vitro; assay type: cell-based; conditions: Mesomycoplasma hyopneumoniae, MS16, 144 h; M. suipneumoniae MS 16; 6 days, 37° C.; read-out: MIC
M. suipneumoniae LABER = test: MIC against mycoplasma in vitro; assay type: cell-based; conditions: Mesomycoplasma hyopneumoniae, 144 h; M. suipneumoniae LABER; 6 days, 37° C.; read-out: MIC
M. suipneumoniae TAM 6N = test: MIC against mycoplasma in vitro; assay type: cell-based; conditions: Mesomycoplasma hyopneumoniae, TAM6N, 144 h; M. suipneumoniae TAM 6N; 6 days, 37° C.; read-out: MIC
[1] = test system: M. suipneumoniae ATCC 25095; test: MIC against mycoplasma in vitro; assay type: cell-based; conditions: Mesomycoplasma hyopneumoniae, ATCC25095, 144 h; M. suipneumoniae ATCC 25095; 6 days, 37° C.; read-out: MIC
M. hyorhinis ATCC 23234 = test: MIC against mycoplasma in vitro; assay type: cell-based; conditions: Mesomycoplasma hyorhinis, ATCC23234, 144 h; M. hyorhinis ATCC 23234; 6 days, 37° C.; read-out: MIC
M. hyorhinis ATCC 25021 = test: MIC against mycoplasma in vitro; assay type: cell-based; conditions: Mesomycoplasma hyorhinis, ATCC25021, 144 h; M. hyorhinis ATCC 25021; 6 days, 37° C.; read-out: MIC
[2] = test system: M. bovigenitalium ATCC 14173; test: MIC against mycoplasma in vitro; assay type: cell-based; conditions: 144 h
E. coli NCTC 10418 = test: MIC against human bacteria in vitro; assay type: cell-based; conditions: Escherichia coli
E. coli ESS = test: MIC against human bacteria in vitro; assay type: cell-based; conditions: Escherichia coli
K. aerogenes A = test: MIC against human bacteria in vitro; assay type: cell-based; conditions: Klebsiella aerogenes; K. aerogenes A; 5% chocolated horse blood agar, 18 hours; read-out: MIC
[3] = test system: Ps. aeruginosa NCTC 10662; test: MIC against human bacteria in vitro; assay type: cell-based; conditions: Pseudomonas aeruginosa, NCTC10662; Ps. aeruginosa NCTC 10662; 5% chocolated horse blood agar, 18 hours; read-out: MIC
[4] = test system: Haemophilus influenzae Wy21; test: MIC against human bacteria in vitro; assay type: cell-based; conditions: Haemophilus influenzae Wy21; 5% chocolated horse blood agar, 18 hours; read-out: MIC
[5] = test system: Neisseria catarrhalis 1502; test: MIC against human bacteria in vitro; assay type: cell-based; conditions: Neisseria catarrhalis 1502; 5% chocolated horse blood agar, 18 hours; read-out: MIC
Bacillus subtilis 6633 = test: MIC against human bacteria in vitro; assay type: cell-based; conditions: Bacillus subtilis 6633; 5% chocolated horse blood agar, 18 hours; read-out: MIC
[6] = test system: Corynebacterium xerosis 9755; test: MIC against human bacteria in vitro; assay type: cell-based; conditions: Corynebacterium xerosis 9755; 5% chocolated horse blood agar, 18 hours; read-out: MIC
Sarcina lutea 8340 = test: MIC against human bacteria in vitro; assay type: cell-based; conditions: Micrococcus luteus; Sarcina lutea 8340; 5% chocolated horse blood agar, 18 hours; read-out: MIC
Staph. aureus Russell = test: MIC against human bacteria in vitro; assay type: cell-based; conditions: Staphylococcus aureus; Staph. aureus Russell; 5% chocolated horse blood agar, 18 hours; read-out: MIC
Staph. aureus W2827 = test: MIC against human bacteria in vitro; assay type: cell-based; conditions: Staphylococcus aureus; Staph. aureus W2827; 5% chocolated horse blood agar, 18 hours; read-out: MIC
Strep. faecalis I = test: MIC against human bacteria in vitro; assay type: cell-based; conditions: Enterococcus faecalis; Strep. faecalis I; 5% chocolated horse blood agar, 18 hours; read-out: MIC
[7] = test system: Strep. pyogenes R80/421-A; test: MIC against human bacteria in vitro; assay type: cell-based; conditions: Streptococcus pyogenes; Strep. pyogenes R80/421-A; 5% chocolated horse blood agar, 18 hours; read-out: MIC
Strep. agalactiae 2788-B = test: MIC against human bacteria in vitro; assay type: cell-based; conditions: Streptococcus agalactiae; Strep. agalactiae 2788-B; 5% chocolated horse blood agar, 18 hours; read-out: MIC
Strep. spp. 64/848-C = test: MIC against human bacteria in vitro; assay type: cell-based; conditions: Strep. spp. 64/848-C; 5% chocolated horse blood agar, 18 hours; read-out: MIC
Strep. pneumoniae CN33 = test: MIC against human bacteria in vitro; assay type: cell-based; conditions: Streptococcus pneumoniae; Strep. pneumoniae CN33; 5% chocolated horse blood agar, 18 hours; read-out: MIC
S. dublin S7 = test: MIC against veterinary bacteria in vitro; conditions: Salmonella enterica, S7, 18 h
Method: (§1) The activity of the compounds of the Examples against various veterinarily important bacteria, was assayed in vitro using two-fold serial dilutions in Diagnostic Sensitivity Test Agar inoculated with 10^4 organisms.

S. typhimurium S18 = test: MIC against veterinary bacteria in vitro; conditions: Salmonella enterica, TYPHIMURIUM, 18 h
Method: as §1

Past. multocida PA2 = test: MIC against veterinary bacteria in vitro; conditions: Pasteurella multocida, PA2, 18 h
Method: as §1

[8] = test system: Erysipelothrix rhusiopathiae NCTC 8163; test: MIC against veterinary bacteria in vitro; conditions: Erysipelothrix rhusiopathiae, NCTC8163, 18 h
Method: as §1

[9] = test system: Corynebacterium pyogenes CY1; test: MIC against veterinary bacteria in vitro; conditions: CY1, 18 h
Method: as §1

[10] = test system: Staph. aureus 152 (pen. sens); test: MIC against veterinary bacteria in vitro; conditions: Staphylococcus aureus, 18 h
Method: as §1

Staph. aureus Oxford = test: MIC against veterinary bacteria in vitro; conditions: Staphylococcus aureus, 18 h
Method: as §1

Strep. uberis SPU1 = test: MIC against veterinary bacteria in vitro; conditions: Streptococcus uberis, SPU1, 18 h
Method: as §1

Strep. dysgalactiae SPD1 = test: MIC against veterinary bacteria in vitro; conditions: Streptococcus dysgalactiae, SPD1, 18 h
Method: as §1

[11] = M. bovigenitalium ATCC 14173, 6 days, 37° C., read-out: MIC
[12] = NCTC10418, E. coli NCTC 10418, agar with 5% chocolated horse blood, 18 hours, 37° C., read-out: MIC
[13] = E. coli ESS, 5% chocolated horse blood agar, 18 hours, read-out: MIC

| SMILES | MIC (M. suipneumoniae NB12) | MIC (M. suipneumoniae HK(2)) | MIC (M. suipneumoniae Str. 11) | MIC (M. suipneumoniae MS 16) | MIC (M. suipneumoniae LABER) | MIC (M. suipneumoniae TAM 6N) | MIC [1] | MIC (M. hyorhinis ATCC 23234) | MIC (M. hyorhinis ATCC 25021) | MIC (K. aerogenes A) | MIC [3] | MIC [4] | MIC [5] | MIC (Bacillus subtilis 6633) | MIC [6] | MIC (Sarcina lutea 8340) | MIC (Staph. aureus Russell) | MIC (Staph. aureus W2827) | MIC (Strep. faecalis I) | MIC [7] | other results |
| --- | --- | --- | --- | --- | --- | --- | --- | --- | --- | --- | --- | --- | --- | --- | --- | --- | --- | --- | --- | --- | --- |
| C/C(=C\c1ncc(-c2ccc([S+](C)[O-])cc2)o1)C[C@@H]1OC[C@H](C[C@@H]2O[C@H]2[C@@H](C)[C@H](C)O)[C@@H](O)[C@H]1O (stereo partly drawn) [Example 11, 5-p-Methylsulphinylphenyl-2-(1-normon-2-yl) oxazole A] | 0.1 µg/mL (≈ 0.198 µM) | 0.25 µg/mL (≈ 0.494 µM) | 0.1 µg/mL (≈ 0.198 µM) | 0.1 µg/mL (≈ 0.198 µM) | 0.1 µg/mL (≈ 0.198 µM) | 0.5 µg/mL (≈ 0.989 µM) | 0.25 µg/mL (≈ 0.494 µM) | 0.1 µg/mL (≈ 0.198 µM) | 0.1 µg/mL (≈ 0.198 µM) | > 128 µg/mL | > 128 µg/mL | 4 µg/mL (≈ 7.91 µM) | 8 µg/mL (≈ 15.8 µM) | 4 µg/mL (≈ 7.91 µM) | > 128 µg/mL | > 128 µg/mL | 16 µg/mL (≈ 31.6 µM) | 16 µg/mL (≈ 31.6 µM) | > 128 µg/mL | 4 µg/mL (≈ 7.91 µM) | MIC [2, 11]: 0.1 µg/mL (≈ 0.198 µM); MIC (E. coli NCTC 10418; [12]): > 128 µg/mL; MIC (E. coli ESS; [13]): 128 µg/mL (≈ 253 µM); MIC (Strep. agalactiae 2788-B): 4 µg/mL (≈ 7.91 µM); MIC (Strep. spp. 64/848-C): 2 µg/mL (≈ 3.96 µM); MIC (Strep. pneumoniae CN33): 4 µg/mL (≈ 7.91 µM); MIC (S. dublin S7): > 80 µg/mL; MIC (S. typhimurium S18): > 80 µg/mL; MIC (Past. multocida PA2): 0.625 µg/mL (≈ 1.24 µM); MIC [8]: > 80 µg/mL; MIC [9]: > 80 µg/mL; MIC [10]: 2.5 µg/mL (≈ 4.94 µM); MIC (Staph. aureus Oxford): 2.5 µg/mL (≈ 4.94 µM); MIC (Strep. uberis SPU1): 0.312 µg/mL (≈ 0.617 µM); MIC (Strep. dysgalactiae SPD1): 1.25 µg/mL (≈ 2.47 µM) |
| C/C(=C\c1ncc(CCCCCCCC(=O)O)o1)C[C@@H]1OC[C@H](C[C@@H]2O[C@H]2[C@@H](C)[C@H](C)O)[C@@H](O)[C@H]1O [Example 12, Sodium 8-[2-(1-normon-2-yl)-5-oxazolyl]-octanoate A] | > 10 µg/mL | > 10 µg/mL | 10 µg/mL | 10 µg/mL | > 10 µg/mL | > 10 µg/mL | 10 µg/mL | 5 µg/mL | 5 µg/mL | > 16 µg/mL | > 16 µg/mL | 2 µg/mL | 16 µg/mL | 4 µg/mL | > 16 µg/mL | > 16 µg/mL | 8 µg/mL | 8 µg/mL | > 16 µg/mL | 16 µg/mL | MIC [2, 11]: 1 µg/mL; MIC (E. coli NCTC 10418; [12]): > 16 µg/mL; MIC (E. coli ESS; [13]): > 16 µg/mL; MIC (Strep. agalactiae 2788-B): 16 µg/mL; MIC (Strep. spp. 64/848-C): 4 µg/mL; MIC (Strep. pneumoniae CN33): 16 µg/mL; MIC (S. dublin S7): > 40 µg/mL; MIC (S. typhimurium S18): > 40 µg/mL; MIC (Past. multocida PA2): 0.156 µg/mL; MIC [8]: > 40 µg/mL; MIC [9]: > 40 µg/mL; MIC [10]: 0.625 µg/mL; MIC (Staph. aureus Oxford): 0.625 µg/mL; MIC (Strep. uberis SPU1): 0.625 µg/mL; MIC (Strep. dysgalactiae SPD1): 0.625 µg/mL |
| C/C(=C\c1ncc(-c2ccccc2)s1)C[C@@H]1OC[C@H](C[C@@H]2O[C@H]2[C@@H](C)[C@H](C)O)[C@@H](O)[C@H]1O [Example 29, 2-(1-Normon-2-yl)-5-phenylthiazole A] | 10 µg/mL (≈ 21.8 µM) | > 10 µg/mL | 10 µg/mL (≈ 21.8 µM) | 10 µg/mL (≈ 21.8 µM) | 10 µg/mL (≈ 21.8 µM) | > 10 µg/mL | 10 µg/mL (≈ 21.8 µM) | > 10 µg/mL | 10 µg/mL (≈ 21.8 µM) | > 100 µg/mL | > 100 µg/mL | 50 µg/mL (≈ 109 µM) | 50 µg/mL (≈ 109 µM) | 50 µg/mL (≈ 109 µM) | > 100 µg/mL | > 100 µg/mL | 100 µg/mL (≈ 218 µM) | 50 µg/mL (≈ 109 µM) | > 100 µg/mL | 50 µg/mL (≈ 109 µM) | MIC [2]: 1 µg/mL (≈ 2.18 µM); MIC (E. coli NCTC 10418; NCTC10418, 18 h): > 100 µg/mL; MIC (E. coli ESS; 18 h): > 100 µg/mL; MIC (Strep. agalactiae 2788-B): 50 µg/mL (≈ 109 µM); MIC (Strep. spp. 64/848-C): 25 µg/mL (≈ 54.4 µM); MIC (Strep. pneumoniae CN33): 50 µg/mL (≈ 109 µM); MIC (S. dublin S7): > 80 µg/mL; MIC (S. typhimurium S18): > 80 µg/mL; MIC (Past. multocida PA2): 80 µg/mL (≈ 174 µM); MIC [8]: > 80 µg/mL; MIC [9]: > 80 µg/mL; MIC [10]: 10 µg/mL (≈ 21.8 µM); MIC (Staph. aureus Oxford): 10 µg/mL (≈ 21.8 µM); MIC (Strep. uberis SPU1): 5 µg/mL (≈ 10.9 µM); MIC (Strep. dysgalactiae SPD1): 20 µg/mL (≈ 43.5 µM) |
